Laboratory results reported in the supplement of paper PMC10307832.

Assays:
Assay in all cases: relative viability (nuclei count vs DMSO), 5 days (fraction); higher = more cells survive
Shikonin + Crizotinib = compound: CC(C)=CC[C@@H](O)C1=CC(=O)c2c(O)ccc(O)c2C1=O [Shikonin] + C[C@@H](Oc1cc(-c2cnn(C3CCNCC3)c2)cnc1N)c1c(Cl)ccc(F)c1Cl [Crizotinib] (partner 1 µM)
Method in brief: (§1)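 For relative viability, nuclei counts in treated wells were divided by those in vehicle wells. Lung cancer cell lines had been pin-tool dosed in 1536-well plates the day after seeding and cultured for 5 days, then fixed and stained in one step (final 0.05% Triton X-100, 1% formaldehyde, 1 ug/ml Hoechst) and imaged at 4×. Doses were one drug alone or a fixed anchor-drug dose plus five library-drug doses (not always all listed) in √10 steps, and values are duplicate-plate medians.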

[1] = compound: CC(C)N(CCCNC(=O)Nc1ccc(C(C)(C)C)cc1)C[C@H]1O[C@@H](n2ccc3c(N)ncnc32)[C@H](O)[C@@H]1O + COc1cccc2cc(-c3nc([C@H]4CC[C@H](C(=O)O)CC4)n4ncnc(N)c34)[nH]c12 [OSI-027] (partner 0.5 µM)
Method in brief: as §1

Shikonin + Pemetrexed = compound: CC(C)=CC[C@@H](O)C1=CC(=O)c2c(O)ccc(O)c2C1=O [Shikonin] + Nc1nc2[nH]cc(CCc3ccc(C(=O)N[C@@H](CCC(=O)O)C(=O)O)cc3)c2c(=O)[nH]1 [Pemetrexed] (partner 0.2 µM)
Method in brief: as §1

Shikonin + Luminespib = compound: CC(C)=CC[C@@H](O)C1=CC(=O)c2c(O)ccc(O)c2C1=O [Shikonin] + CCNC(=O)c1noc(-c2cc(C(C)C)c(O)cc2O)c1-c1ccc(CN2CCOCC2)cc1 [Luminespib] (partner 0.01 µM)
Method in brief: as §1

Cell Line	relative viability (Shikonin + Crizotinib; first compound 0.01 µM)	relative viability (Shikonin + Crizotinib; first compound 0.1 µM)	relative viability (Shikonin + Crizotinib; first compound 0.3162 µM)	relative viability (Shikonin + Crizotinib; first compound 1 µM)	relative viability ([1]; first compound 0.08 µM)	relative viability ([1]; first compound 0.253 µM)	relative viability ([1]; first compound 0.8 µM)	relative viability ([1]; first compound 2.53 µM)	relative viability ([1]; first compound 8 µM)	relative viability (Shikonin + Pemetrexed; first compound 0.01 µM)	relative viability (Shikonin + Pemetrexed; first compound 0.1 µM)	relative viability (Shikonin + Pemetrexed; first compound 0.3162 µM)	relative viability (Shikonin + Pemetrexed; first compound 1 µM)	relative viability (Shikonin + Luminespib; first compound 0.01 µM)	relative viability (Shikonin + Luminespib; first compound 0.1 µM)	relative viability (Shikonin + Luminespib; first compound 0.3162 µM)	relative viability (Shikonin + Luminespib; first compound 1 µM)
201T	1.01	1.08	1.04	1.08	0.417	0.864	0.624	0.77	0.903	0.346	0.382	0.368	0.307	0.971	1.13	1.03	1.07
A549	0.748	0.932	0.872	0.705	–	–	–	–	–	–	–	–	–	–	–	–	–
A-427	0.978	1.12	1.03	0.847	0.439	0.492	0.535	0.502	0.478	1.02	1.04	1.01	1.24	0.743	1.21	0.814	0.88
ABC-1	1.72	1.15	1.13	0.531	0.497	0.588	–	0.565	0.529	–	–	–	–	0.713	0.753	0.4	0.17
BEN	0.952	0.974	0.975	0.998	0.301	0.277	0.298	0.294	0.275	0.765	0.856	0.78	0.87	0.505	0.469	0.474	0.849
CAL-12T	0.941	0.659	0.627	0.589	0.603	0.498	0.635	0.579	0.53	1.28	1.41	1.09	1.24	0.473	0.415	0.257	0.42
COR-L23	0.735	0.786	0.601	0.689	0.758	0.739	0.697	0.735	0.689	0.188	0.19	0.208	0.206	0.848	0.675	0.767	0.357
COR-L 105	1.06	0.721	0.763	0.692	0.682	0.581	0.664	0.427	0.648	1.1	1.09	1.05	1.02	0.787	0.758	0.83	0.74
Calu-6	1.02	0.854	0.912	0.75	–	–	–	–	–	–	–	–	–	–	–	–	–
ChaGo-K-1	1.07	1.19	1.11	1.21	0.525	0.616	0.471	0.628	0.585	0.266	0.279	0.266	0.258	0.635	0.82	0.55	0.415
EBC-1	0.165	0.224	0.216	0.201	–	–	–	–	–	–	–	–	–	–	–	–	–
EKVX	1.05	1.2	0.996	1.07	0.718	0.713	0.71	0.704	0.668	0.438	0.435	0.472	0.362	0.907	0.892	0.915	0.922
EMC-BAC-2	0.771	0.715	0.815	0.866	0.384	0.485	0.42	0.412	0.355	0.44	0.503	0.453	0.422	1.25	1.44	1.3	1.24
EPLC-272H	1.03	0.901	0.953	0.865	0.275	0.423	0.274	0.283	0.259	0.264	0.314	0.334	0.297	0.167	0.303	0.209	0.261
H3255	0.945	1	0.958	0.915	0.564	0.614	0.685	0.543	0.538	0.592	0.563	0.605	0.577	0.869	0.973	1.05	0.865
HARA	1.18	1.19	1.11	1.21	0.454	0.536	0.621	0.568	0.375	0.265	0.306	0.255	0.24	0.864	0.841	0.775	0.936
HCC-15	0.89	0.916	0.913	0.928	0.641	0.815	0.6	0.812	0.655	0.228	0.225	0.233	0.213	0.358	0.888	0.242	0.402
HCC-44	0.933	0.86	0.891	0.825	0.507	0.509	0.432	0.572	0.552	0.652	0.678	0.667	0.637	0.814	1.14	1.28	1.23
HCC-78	0.325	0.388	0.357	0.377	0.376	0.388	0.356	0.364	0.346	0.91	0.844	0.941	0.893	–	–	–	–
HCC-366	0.745	0.373	0.517	0.561	0.916	1.27	0.716	0.816	0.641	0.172	0.185	0.161	0.15	–	–	–	–
HCC-827	0.939	0.974	0.933	0.935	0.699	0.838	–	0.722	0.665	0.23	0.283	0.234	0.259	0.518	0.887	0.638	0.64
